The text below walks through data of patent US20250101041A1, “POSITIVE ALLOSTERIC MODULATORS OF THE MUSCARINIC ACETYLCHOLINE RECEPTOR M4” (Vanderbilt University, priority 2022, published 2025).

SMILES strings stand for the structures.

This assay addresses T1, human mAChR M4 (Homo sapiens, UniProt P08173).
T1 construct: expressed in transfected cells; host or cells: CHO-K1 (American Type Culture Collection), stably expressing hM4 and Gqi5
T1 sequence (P08173 1-479): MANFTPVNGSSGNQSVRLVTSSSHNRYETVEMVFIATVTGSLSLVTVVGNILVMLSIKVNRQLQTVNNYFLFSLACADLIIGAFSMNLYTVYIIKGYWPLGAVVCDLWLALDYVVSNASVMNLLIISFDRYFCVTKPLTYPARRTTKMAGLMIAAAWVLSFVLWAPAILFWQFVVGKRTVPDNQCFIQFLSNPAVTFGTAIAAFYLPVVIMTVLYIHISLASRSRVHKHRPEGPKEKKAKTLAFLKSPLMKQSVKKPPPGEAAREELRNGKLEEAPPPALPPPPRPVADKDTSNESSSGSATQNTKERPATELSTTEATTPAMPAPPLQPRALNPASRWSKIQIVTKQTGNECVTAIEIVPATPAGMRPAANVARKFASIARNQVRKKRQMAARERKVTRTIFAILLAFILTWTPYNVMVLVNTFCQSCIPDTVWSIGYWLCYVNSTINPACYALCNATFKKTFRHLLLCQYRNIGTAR
Nature of the assay: mAChR M4 cell-based functional assay: calcium mobilization (Fluo-4, FDSS), potentiation of EC20 acetylcholine response in hM4-Gqi5 CHO-K1 cells. Particulars: human M4; for Emax at 30 µM: CHO-K1, % ACh maximum at 30 μM; for EC50: potentiation of EC20 acetylcholine response, calcium mobilization. The method in brief:
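Readout is the fluorescence-ratio rise at 1 Hz on FDSS, with PAM activity taken as concentration-dependent enhancement of the EC20 acetylcholine response, fitted four-parameter for EC50/Emax. hM4-Gqi5 CHO-K1 cells carried Fluo-4 AM dye; test compounds (11 points, 1:3) preceded EC20 acetylcholine additions at 144 s and 230 s.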

For orientation: Emax means the greatest response seen or fitted, relative to the assay's reference. Usually EC50 stands for the concentration that produces a half-maximal response.

In the case of `Cc1cc(=O)n2nc(N3CCc4ncc(-c5cnn(C6CCOCC6)c5)cc4C3)c(C)c(C)c2n1` [Compound 1-182, 2,8,9-trimethyl-7-(3-(1-(tetrahydro-2H-pyran-4-yl)-1H-pyrazol-4-yl)-7,8-dihydro-1,6-naphthyridin-6(5H)-yl)-4H-pyrimido[1,2-b]pyridazin-4-one], the maximal response (Emax) at 30 µM amounted to 66% and the EC50 is 1410 nM. Turning to `CCc1cnc2cc(C)c(N3CCc4ncc(C(F)(F)F)cc4C3)nn2c1=O` [Compound 1-24, 3-Ethyl-8-methyl-7-(3-(trifluoromethyl)-7,8-dihydro-1,6-naphthyridin-6(5H)-yl)-4H-pyrimido[1,2-b]pyridazin-4-one], the maximum response (Emax) at 30 µM came out at 75% and the half-maximal effective concentration (EC50) came to 309 nM. For the molecule `Cc1c(N2CCc3ncc(-c4ccnnc4)cc3C2)nn2c(=O)ccnc2c1C` [Compound 1-141, 8,9-dimethyl-7-(3-(pyridazin-4-yl)-7,8-dihydro-1,6-naphthyridin-6(5H)-yl)-4H-pyrimido[1,2-b]pyridazin-4-one], the maximal response (Emax) at 30 µM was 96% and the half-maximal effective concentration (EC50) is 410 nM. For `Cc1cncc(-c2cnc3c(c2)CN(c2nn4c(=O)cc(C)nc4cc2C)CC3)c1` [Compound 1-289, 2,8-dimethyl-7-(3-(5-methylpyridin-3-yl)-7,8-dihydro-1,6-naphthyridin-6(5H)-yl)-4H-pyrimido[1,2-b] pyridazin-4-one] the same measures were 70% and 4550 nM. Turning to `Cc1cc2nccc(=O)n2nc1N1CCc2ncc(N3CCOC(c4ccc(F)cc4)C3)cc2C1` (centres unmarked) [Compound 2-64, 7-(3-(2-(4-fluorophenyl)morpholino)-7,8-dihydro-1,6-naphthyridin-6(5H)-yl)-8-methyl-4H-pyrimido[1,2-b]pyridazin-4-one], the Emax at 30 µM is 84% and the EC50 was 398 nM. As to `Cc1ccccc1-c1cnc2c(c1)CN(c1nn3c(=O)ccnc3cc1C)CC2` [Compound 1-431, 8-methyl-7-(3-(o-tolyl)-7,8-dihydro-1,6-naphthyridin-6(5H)-yl)-4H-pyrimido[1,2-b] pyridazin-4-one], the Emax at 30 µM stood at 96% and the EC50 was found to be 130 nM.

Turning to `Cc1cc2nccc(=O)n2nc1N1CCc2ncc(NC(=O)C3(C)CCC3)cc2C1` [Compound 2-121, 1-methyl-N-(6-(8-methyl-4-oxo-4H-pyrimido[1,2-b]pyridazin-7-yl)-5,6,7,8-tetrahydro-1,6-naphthyridin-3-yl)cyclobutane-1-carboxamide], the Emax at 30 µM was found to be 66%.

`Cc1cc(=O)n2nc(N3CCc4ncc(-c5ccccc5C(F)(F)F)cc4C3)c(C)cc2n1` [Compound 1-255, 2,8-dimethyl-7-(3-(2-(trifluoromethyl)phenyl)-7,8-dihydro-1,6-naphthyridin-6(5H)-yl)-4H-pyrimido[1,2-b] pyridazin-4-one]: the Emax at 30 µM worked out at 60% and the concentration for a half-maximal effect (EC50) stood at 2370 nM.

On to `Cc1c(N2CCc3ncc(-c4cnn(-c5ccccc5F)c4)cc3C2)nn2c(=O)cc(C(F)F)nc2c1C` [Compound 1-165, 2-(difluoromethyl)-7-(3-(1-(2-fluorophenyl)-1H-pyrazol-4-yl)-7,8-dihydro-1,6-naphthyridin-6(5H)-yl)-8,9-dimethyl-4H-pyrimido[1,2-b]pyridazin-4-one], for which the Emax at 30 µM was 47%. `Cc1cc2nc(C(F)F)cc(=O)n2nc1N1CCc2ncc(-n3cccn3)cc2C1` [Compound 2-26, 7-(3-(1H-pyrazol-1-yl)-7,8-dihydro-1,6-naphthyridin-6(5H)-yl)-2-(difluoromethyl)-8-methyl-4H-pyrimido[1,2-b]pyridazin-4-one]: the maximal effect (Emax) at 30 µM stood at 87% and the EC50 was 105 nM. For `Cc1cc(=O)n2nc(N3CCc4ncc(-c5ccco5)cc4C3)c(C)cc2n1` [Compound 1-301, 7-(3-(furan-2-yl)-7,8-dihydro-1,6-naphthyridin-6(5H)-yl)-2,8-dimethyl-4H-pyrimido[1,2-b]pyridazin-4-one] the same measures were 91% and 111 nM. As to `CCc1cc(=O)n2nc(N3CCc4ncc(C(F)(F)F)cc4C3)c(C)c(C)c2n1` [Compound 1-105, 2-ethyl-8,9-dimethyl-7-(3-(trifluoromethyl)-7,8-dihydro-1,6-naphthyridin-6(5H)-yl)-4H-pyrimido[1,2-b]pyridazin-4-one], the Emax at 30 µM turned out to be 99% and the 50% effective concentration (EC50) was 162 nM. As to `Cc1cc(=O)n2nc(N3CCc4ncc(-c5cccc(F)c5)cc4C3)c(C)c(C)c2n1` [Compound 1-203, 7-(3-(3-fluorophenyl)-7,8-dihydro-1,6-naphthyridin-6(5H)-yl)-2,8,9-trimethyl-4H-pyrimido[1,2-b]pyridazin-4-one], the maximal response (Emax) at 30 µM came to 80% and the half-maximal effective concentration (EC50) was 417 nM. With `Cc1cc2nccc(=O)n2nc1N1CCc2ncc(N3CCOC(c4ccccc4)C3)cc2C1` (stereo in doubt) [Compound 2-96, (R)-8-methyl-7-(3-(2-phenylmorpholino)-7,8-dihydro-1,6-naphthyridin-6(5H)-yl)-4H-pyrimido[1,2-b]pyridazin-4-one], the Emax at 30 µM was 42% and the EC50 is 1430 nM.

Regarding `Cc1cc(=O)n2nc(N3CCc4ncc(-c5cnccc5C)cc4C3)c(C)cc2n1` [Compound 1-214, 2,8-dimethyl-7-(3-(4-methylpyridin-3-yl)-7,8-dihydro-1,6-naphthyridin-6(5H)-yl)-4H-pyrimido[1,2-b] pyridazin-4-one], the Emax at 30 µM worked out at 82% and the 50% effective concentration (EC50) came out at 139 nM. For `Cc1cc2nc(C)c(Cl)c(=O)n2nc1N1CCc2ncc(C(F)(F)F)cc2C1` [Compound 1-28, 3-chloro-2,8-dimethyl-7-(3-(trifluoromethyl)-7,8-dihydro-1,6-naphthyridin-6(5H)-yl)-4H-pyrimido[1,2-b]pyridazin-4-one] the same measures were 86% and 40 nM. For `Cc1c(N2CCc3ncc(-c4cncc(F)c4)cc3C2)nn2c(=O)ccnc2c1C` [Compound 1-103, 7-(3-(5-fluoropyridin-3-yl)-7,8-dihydro-1,6-naphthyridin-6(5H)-yl)-8,9-dimethyl-4H-pyrimido[1,2-b]pyridazin-4-one] the same measures were 93% and 449 nM. For the molecule `Cc1cc2nccc(=O)n2nc1N1CCc2ncc(-c3cccnc3C(C)(C)O)cc2C1` [Compound 1-418, 7-(3-(2-(2-hydroxypropan-2-yl)pyridin-3-yl)-7,8-dihydro-1,6-naphthyridin-6(5H)-yl)-8-methyl-4H-pyrimido[1,2-b]pyridazin-4-one], the Emax at 30 µM was 48%. On to `Cc1c(N2CCc3ncc(-c4cnc5ccccc5c4)cc3C2)nn2c(=O)ccnc2c1C` [Compound 1-224, 8,9-dimethyl-7-(3-(quinolin-3-yl)-7,8-dihydro-1,6-naphthyridin-6(5H)-yl)-4H-pyrimido[1,2-b]pyridazin-4-one], for which the maximum response (Emax) at 30 µM was found to be 60% and the EC50 came to 651 nM. For `Cc1cc2nccc(=O)n2nc1N1CCc2ncc(-c3ccc4nccn4c3)cc2C1` [Compound 1-53, 7-(3-(imidazo[1,2-a]pyridin-6-yl)-7,8-dihydro-1,6-naphthyridin-6(5H)-yl)-8-methyl-4H-pyrimido[1,2-b]pyridazin-4-one] the same measures were 75% and 699 nM. Regarding `CC(=O)N1CC=C(c2cnc3c(c2)CN(c2nn4c(=O)ccnc4cc2C)CC3)CC1` [Compound 1-388, 7-(3-(1-acetyl-1,2,3,6-tetrahydropyridin-4-yl)-7,8-dihydro-1,6-naphthyridin-6(5H)-yl)-8-methyl-4H-pyrimido[1,2-b]pyridazin-4-one], the Emax at 30 µM was 61% and the EC50 is 1280 nM. For `Cc1c(N2CCc3ncc(-c4cncc(C#N)c4)cc3C2)nn2c(=O)cc(C(F)F)nc2c1C` [Compound 1-157, 5-(6-(2-(difluoromethyl)-8,9-dimethyl-4-oxo-4H-pyrimido[1,2-b]pyridazin-7-yl)-5,6,7,8-tetrahydro-1,6-naphthyridin-3-yl)nicotinonitrile], the maximal response (Emax) at 30 µM was found to be 100% and the EC50 amounted to 426 nM. As to `COc1cc(C)c(-c2cnc3c(c2)CN(c2nn4c(=O)cc(C(F)F)nc4c(C)c2C)CC3)cn1` [Compound 1-188, 2-(difluoromethyl)-7-(3-(6-methoxy-4-methylpyridin-3-yl)-7,8-dihydro-1,6-naphthyridin-6(5H)-yl)-8,9-dimethyl-4H-pyrimido[1,2-b]pyridazin-4-one], the Emax at 30 µM stood at 91% and the half-maximal effective concentration (EC50) was determined as 103 nM. For the molecule `Cc1cc2n(n1)CCCN2c1cnc2c(c1)CN(c1nn3c(=O)ccnc3cc1C)CC2` [Compound 2-5, 8-methyl-7-(3-(2-methyl-6,7-dihydropyrazolo[1,5-a]pyrimidin-4(5H)-yl)-7,8-dihydro-1,6-naphthyridin-6(5H)-yl)-4H-pyrimido[1,2-b]pyridazin-4-one], the Emax at 30 µM was found to be 97% and the EC50 amounted to 60 nM. For `Cc1cc2nccc(=O)n2nc1N1CCc2ncc(-c3cnn(C(F)F)c3C)cc2C1` [Compound 1-414, 7-(3-(1-(difluoromethyl)-5-methyl-1H-pyrazol-4-yl)-7,8-dihydro-1,6-naphthyridin-6(5H)-yl)-8-methyl-4H-pyrimido[1,2-b]pyridazin-4-one] the same measures were 81% and 435 nM.
